Experimental data: patent publication US7547660B2, “Phenyl-substituted 4-hydroxy-tetrahydropyridones” (Bayer Aktiengesellschaft, priority 2000, dated 2009)

Key:
Assay type in all cases: in vivo
Galium = assay: Pre-emergence test, greenhouse; conditions: 500 g/ha, after three weeks
Procedure: (§1) • Solvent: 5 parts by weight of acetone • Emulsifier: 1 part by weight of alkylaryl polyglycol ether
(§2) To produce a suitable preparation of active compound, 1 part by weight of active compound is mixed to the stated amount of solvent, the stated amount of emulsifier is added and the concentrate is diluted with water to the desired concentration.
(§3) Seeds of the test plants are sown in normal soil. After about 24 hours, the soil is sprayed with the preparation of active compounds such that the particular amounts of active compound desired are applied per unit area. The concentration of the spray liquor is chosen such that the particular amounts of active compound desired are applied in 1 000 l of water/ha.
(§4) After three weeks, the degree of damage to the plants is rated in % damage in comparison to the development of the untreated control.
(§5) The figures denote: • 0%=no effect (like untreated control) • 100%=total destruction

Amaranthus [1] = assay: Pre-emergence test, greenhouse; conditions: 500 g/ha, after three weeks
Procedure: as §1, §2, §3, §4, §5

Alopecurus [2] = assay: Pre-emergence test, greenhouse; conditions: after three weeks
Procedure: as §1, §2, §3, §4, §5

Meloidogyne incognita = assay: Meloidogyne test; conditions: 20 ppm active compound; after 14 days; lettuce
Procedure: Meloidogyne Test • Solvent: 30 parts by weight of dimethylformamide • Emulsifier: 1 part by weight of alkylaryl polyglycol ether To produce a suitable preparation of active compound, 1 part by weight of active compound is mixed with the stated amounts of solvent and emulsifier, and the concentrate is diluted with water to the desired concentration. Containers are filled with sand, solution of active compound, Meloidogyne incognita egg/larvae suspension and lettuce seeds. The lettuce seeds germinate and the plants develop. On the roots, galls are formed. After the desired period of time, the nematicidal action in % is determined using the formation of galls as a measure. 100% means that no galls have been found; 0% means that the number of galls on the treated plants corresponds to that on the untreated control.

Tetranychus urticae = assay: Tetranychus test (OP-resistent/dip treatment); conditions: 100 ppm active compound; after 7 days; bean plants dipped
Procedure: Tetranychus Test (OP-Resistent/Dip Treatment)
• Solvent: 30 parts by weight of dimethylformamide • Emulsifier: 1 part by weight of alkylaryl polyglycol ether
To produce a suitable preparation of active compound, 1 part by weight of active compound is mixed with the stated amounts of solvent and emulsifier, and the concentrate is diluted with emulsifier-containing water to the desired concentration.
Bean plants (Phaseolus vulgaris) which are heavily infested by all stages of the greenhouse […] spider mite (Tetranychus urticae) are treated by being dipped into a preparation of active compound of the desired concentration.
After the desired period of time, the effect in % is determined. 100% means that all spider mites have been killed; 0% means that none of the spider mites have been killed.

Echinochloa [3] = assay: Post-emergence test, greenhouse; conditions: after three weeks
Procedure: as §1
(§6) To produce a suitable preparation of active compound, 1 part by weight of active compound is mixed with the stated amount of solvent, the stated amount of emulsifier is added and the concentrate is diluted with water to the desired concentration.
(§7) Test plants of a height of 5-15 cm are sprayed with the preparation of active compound such that the particular amounts of active compound desired are applied per unit area. The concentration of the spray liquor was chosen such that the particular amounts of active compound desired are applied in 1 000 l of water/ha.
as §4, §5

Amaranthus [4] = assay: Post-emergence test, greenhouse; conditions: after three weeks
Procedure: as §1, §6, §7, §4, §5

Alopecurus [5] = assay: Post-emergence test, greenhouse; conditions: 2 000 g/ha, after three weeks
Procedure: as §1, §6, §7, §4, §5

Setaria [6] = assay: Post-emergence test, greenhouse; conditions: after three weeks
Procedure: as §1, §6, §7, §4, §5

Sugar beet = assay: Post-emergence test, greenhouse; conditions: after three weeks
Procedure: as §1, §6, §7, §4, §5

Lolium = assay: Pre-emergence test, greenhouse; conditions: 250 g/ha, after three weeks
Procedure: as §1, §2, §3, §4, §5

Soya = assay: Pre-emergence test, greenhouse; conditions: 250 g/ha, after three weeks
Procedure: as §1, §2, §3, §4, §5

Wheat = assay: Pre-emergence test, greenhouse; conditions: 250 g/ha, after three weeks
Procedure: as §1, §2, §3, §4, §5

Echinochloa [7] = assay: Pre-emergence test, greenhouse; conditions: after three weeks
Procedure: as §1, §2, §3, §4, §5

Setaria [8] = assay: Pre-emergence test, greenhouse; conditions: after three weeks
Procedure: as §1, §2, §3, §4, §5

Digitaria = assay: Pre-emergence test, greenhouse; conditions: 250 g/ha, after three weeks
Procedure: as §1, §2, §3, §4, §5

Avena fatua [9] = assay: Post-emergence test, greenhouse; conditions: 2 000 g/ha, after three weeks
Procedure: as §1, §6, §7, §4, §5

Avena fatua [10] = assay: Pre-emergence test, greenhouse; conditions: 2 000 g/ha, after three weeks
Procedure: as §1, §2, §3, §4, §5

Cc1cc(Cl)cc(Cl)c1C1=C(O)CC(C)(C)NC1=O [I-a-3]
% damage Galium (Galium): 100%
% damage Amaranthus (Amaranthus [1]): 70%
% damage Alopecurus (Alopecurus [2]; 500 g/ha): 70%

Cc1ccc(Br)cc1C1=C(O)CC(C)(C)NC1=O [I-a-4]
kill (nematicidal action, formation of galls as measure) (Meloidogyne incognita): 95%

Cc1ccc(-c2ccc(Cl)cc2)cc1C1=C(O)CC(C)(C)NC1=O [I-a-5]
kill of spider mites (Tetranychus urticae): 99%

Cc1cc(Br)cc(Cl)c1C1=C(O)CC(C)(C)NC1=O [I-a-10]
% damage Echinochloa (Echinochloa [3]; 2 000 g/ha): 80%
% damage Amaranthus (Amaranthus [4]; 2 000 g/ha): 70%
% damage Alopecurus (Alopecurus [5]): 70%
% damage Setaria (Setaria [6]; 2 000 g/ha): 80%
% damage Sugar beet (Sugar beet; 2 000 g/ha): 0%
% damage Lolium (Lolium): 100%
% damage Soya (Soya): 0%
% damage Wheat (Wheat): 0%
% damage Echinochloa (Echinochloa [7]; 250 g/ha): 80%
% damage Setaria (Setaria [8]; 250 g/ha): 95%
% damage Digitaria (Digitaria): 90%

CCc1cc(Br)cc(Cl)c1C1=C(O)CC(C)(C)NC1=O [I-a-11]
% damage Echinochloa (Echinochloa [3]; 2 000 g/ha): 100%
% damage Alopecurus (Alopecurus [5]): 95%
% damage Setaria (Setaria [6]; 2 000 g/ha): 100%
% damage Avena fatua (Avena fatua [9]): 100%
% damage Sugar beet (Sugar beet; 2 000 g/ha): 90%
% damage Echinochloa (Echinochloa [7]; 2 000 g/ha): 100%
% damage Alopecurus (Alopecurus [2]; 2 000 g/ha): 100%
% damage Setaria (Setaria [8]; 2 000 g/ha): 100%
% damage Avena fatua (Avena fatua [10]): 100%

CCOC(=O)OC1=C(c2cc(-c3ccc(Cl)cc3)ccc2C)C(=O)NC(C)(C)C1 [I-c-1]
kill of spider mites (Tetranychus urticae): 95%
% damage Echinochloa (Echinochloa [3]; 250 g/ha): 70%
% damage Amaranthus (Amaranthus [4]; 250 g/ha): 80%
% damage Setaria (Setaria [6]; 250 g/ha): 80%
% damage Sugar beet (Sugar beet; 250 g/ha): 0%
